Measurements from publication PMC3319192 (Molecular Pharmaceutics, 2012).

Columns and labels:
wildtype OATP1B3 = biological target: T1, wildtype OATP1B3 (Homo sapiens, UniProt Q9NPD5)
T1 sequence (Q9NPD5 1-702): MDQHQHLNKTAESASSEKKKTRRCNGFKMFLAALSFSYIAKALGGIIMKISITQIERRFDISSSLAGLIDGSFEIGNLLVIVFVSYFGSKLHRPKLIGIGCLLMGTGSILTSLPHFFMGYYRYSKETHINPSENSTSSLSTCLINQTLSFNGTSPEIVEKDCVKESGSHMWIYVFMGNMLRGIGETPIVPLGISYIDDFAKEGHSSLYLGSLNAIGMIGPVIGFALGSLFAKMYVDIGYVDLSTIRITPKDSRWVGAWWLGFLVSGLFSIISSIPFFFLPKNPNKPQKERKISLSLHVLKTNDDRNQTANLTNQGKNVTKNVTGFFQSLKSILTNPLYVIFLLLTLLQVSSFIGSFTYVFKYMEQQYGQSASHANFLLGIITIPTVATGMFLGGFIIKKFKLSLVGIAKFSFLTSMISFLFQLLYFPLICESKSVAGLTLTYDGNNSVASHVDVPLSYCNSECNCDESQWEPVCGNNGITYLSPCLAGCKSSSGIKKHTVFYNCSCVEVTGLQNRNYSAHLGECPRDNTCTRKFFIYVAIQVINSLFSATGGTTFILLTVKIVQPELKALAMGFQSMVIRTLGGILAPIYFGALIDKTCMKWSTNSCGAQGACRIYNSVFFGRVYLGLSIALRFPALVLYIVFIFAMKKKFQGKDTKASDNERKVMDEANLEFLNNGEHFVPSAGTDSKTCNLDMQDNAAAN

OATP1B1 A45G/L545S/T615I = biological target: T2, OATP1B1 A45G/L545S/T615I (Homo sapiens, UniProt Q9Y6L6, A45G/L545S/T615I)
T2 sequence (Q9Y6L6 1-691 A45G/L545S/T615I): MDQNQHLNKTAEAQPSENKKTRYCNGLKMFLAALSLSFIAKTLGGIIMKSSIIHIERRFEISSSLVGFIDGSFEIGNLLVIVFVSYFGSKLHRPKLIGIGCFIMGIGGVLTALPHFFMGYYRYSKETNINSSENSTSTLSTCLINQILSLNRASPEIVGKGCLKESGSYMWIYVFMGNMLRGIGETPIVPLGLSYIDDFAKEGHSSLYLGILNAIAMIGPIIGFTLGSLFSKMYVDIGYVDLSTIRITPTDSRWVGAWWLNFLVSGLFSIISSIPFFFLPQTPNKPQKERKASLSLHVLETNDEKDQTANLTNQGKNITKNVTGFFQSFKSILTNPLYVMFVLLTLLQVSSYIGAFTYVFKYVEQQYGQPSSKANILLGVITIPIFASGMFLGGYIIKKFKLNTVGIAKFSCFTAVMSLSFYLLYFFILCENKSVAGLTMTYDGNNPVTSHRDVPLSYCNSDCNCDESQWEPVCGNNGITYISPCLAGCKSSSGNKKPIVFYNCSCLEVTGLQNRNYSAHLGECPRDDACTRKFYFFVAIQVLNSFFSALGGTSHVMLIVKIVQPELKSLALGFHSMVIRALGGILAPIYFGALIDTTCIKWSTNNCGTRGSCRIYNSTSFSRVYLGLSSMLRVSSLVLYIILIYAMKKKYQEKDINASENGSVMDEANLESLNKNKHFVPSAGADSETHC

- Km (wildtype OATP1B3): 6.5 ± 2 µM
- Km (OATP1B1 A45G/L545S/T615I): 15.4 ± 4.2 µM
Substance: L-aspartyl-L-tryosyl-L-methionylgylcyl-L-tryptophyl-L-methionyl-L-aspartyl-L-phenylalaninamide hydrogen sulfate ester [CCK-8]
